Results on 1 molecule are retold here after patent publication EP0553673A1 (priority 1992, dated 1993).

The subject of this assay is Krebszellen der Zellinie BIR-M1Rk. In kind it is cell-based, Marshall-Ratten.

Turning to `COC(CCOCc1ccccc1)(CCOP(N)(=O)N(CCCl)CCCl)OC` (racemic) [Beispiel 6], under “pH 6”, the “um den Faktor verringerte Überlebensrate der Krebszellen” value was 10 000. Further, the Toxizität entry (pH 7) is reported as “nur eine geringe Toxizität”.
